{
  "source": "patent US12479895B2",
  "about": "“C-terminal CDNF and MANF fragments, pharmaceutical compositions comprising same and uses thereof” (MyNeuroCure Oy, priority 2018, dated 2025)",
  "key": {"[1]": {"system": "ER stressed SCG neurons", "test": "Survival of tunicamycin-treated (ER stressed) SCG sympathetic neurons after microinjection", "assay_type": "cell-based, mice", "conditions": "for survived neurons as % compared to neurons grown in the presence of NGF: Table 1A (FIG. 14), microinjected into cytoplasm, tunicamycin 2 μM, CDNF (400); for Fold change of survived neurons compared to neurons injected with PBS: data of Table 1 divided by values of PBS", "method": "Non-neuronal cells were removed by extensive preplating. Almost pure neurons were cultured in polyornithine/laminin (Sigma)-coated 35-mm plastic dishes in the small-size standard microislands in the Neurobasal medium and B27 supplement (Invitrogen/Gibco) in the presence of 30 ng/ml mouse nerve growth factor (NGF) (Promega) for 5-6 days. NGF was deprived by extensive washing and addition of the function-blocking anti-NGF antibodies (Roche). The neurons were pressure-microinjected with special neuronal microinjection equipment (Hellman et al., 2011; Hamner et al., 2001; Lindholm et al., 2002; Sun et al., 2001; Yu et al., 2003)(Sun et al., 2001; Sun et al., 2003). For the survival assay, all neurons on the microislands were counted in the beginning (initial number) and the end (three days) of the experiment and expressed as % of initial.\nMicroinjection of the sympathetic neurons was performed as described earlier (Yu, L. Y., Jokitalo, E., Sun, Y. F., Mehlen, P., Lindholm, D., Saarma, M., and Arumae, U. (2003) J Cell Biol. 163, 987-997). Plasmids for CDNF have been described earlier. Briefly, newborn mouse SCG neurons were grown with NGF (Promega) for 5-6 days then the nuclei were microinjected with the expression plasmids for full-length (FL)-CDNF and C-CDNF together with a reporter plasmid for enhanced green fluorescent protein (EGFP), using vector concentration of 10 ng/ul in each experiment. […] For protein microinjection, recombinant full length (FL)-CDNF, C-CDNF proteins in PBS at 200 ng/ul were microinjected directly into the cytoplasm together with fluorescent reporter Dextran Texas Red (MW 70000 Da) (Invitrogen, Molecular Probes) that facilitates identification of the successfully injected neurons. Next day tunicamycin (2 μM) was added, and after 3 days the living fluorescent neurons were counted. Living fluorescent (EGFP-expressing or Dextran Texas Red-containing) neurons were “blindly” counted three days later and expressed as percent of initial living fluorescent neurons counted 2-3 hours after microinjection. The experiments with plasmids were repeated on independent cultures 5 times for plasmid experiment, whereas four independent protein injection experiments were performed. On average, 50-80 neurons were successfully injected per experimental group. The results were expressed as the mean±the SEM. Data of each experimental group was compared with control plasmid PCR3.1 (vector) or PBS (in the protein injection experiments) by one-way ANOVA and post hoc Dunnett's t test. The null hypothesis was rejected at p<0.05."}, "[2]": {"system": "dopamine neurons", "test": "Survival of TH-positive dopamine neurons in dissociated midbrain floor cultures", "assay_type": "cell-based, mouse", "conditions": "for survived neurons as % compared to neurons grown in the presence of GDNF: Table 3A (FIG. 15), 5 days; for Fold change of survived neurons compared to neurons grown without growth factors: data of Table 3 divided by values of no factor", "method": "To study the dopamine neurons (Yu et al., 2008; Yu and Arumae, 2008), the midbrain floors were dissected from the ventral mesencephali of 13.5-d-old NMRI strain mouse embryos. Tissues were incubated with 0.5% trypsin (ICN Biomedical), then mechanically dissociated using a large fire-polished Pasteur pipette. The neurons were grown on the poly-L-ornithine-coated (Sigma) 96-well culture plates in DMEM/F12 medium (Invitrogen) containing N2 supplement (Invitrogen) in the presence or absence of GDNF (100 ng/ml) or with CDNF, MANF, C-CDNF and C-MANF polypeptides at different concentrations for five days. Same amount of the neurons were plated to each well at the beginning of the experiments. The cultures without added neurotrophic factors served as the negative control. As the midbrain cultures contain several neuronal types, the cultures were fixed and immunostained with the antibodies to tyrosine hydroxylase (TH) (Millipore), a specific marker for the dopaminergic neurons. Images of each well were scanned by CellInsight™ and immunopositive neurons were counted by CellProfiler and CellProfiler analyst software. Data are expressed as a percentage of GDNF-maintained TH-positive neurons. All experiments were repeated at least three times on the independent cultures. The results were expressed as the mean the SEM and were tested for the significance by either one-way ANOVA and Tukey's post hoc test or by two-tailed Student's t-test. The null hypothesis was rejected at P≤0.05."}},
  "data": [
    {"sequence": "KYEKTLDLASVDLRKMRVAELKQILHSWGEECRACAEKTDYVNLIQELAPKYA (listed as Homo sapiens) [pep3]", "values": [
      {"measurement": "survived neurons as % compared to neurons grown in the presence of NGF", "setting": "[1]; AVG of exp1-2", "value": 85.46, "unit": "% NGF"},
      {"measurement": "survived neurons as % compared to neurons grown in the presence of NGF", "setting": "[1]; exp1, counted after 3 days", "value": 83.08, "unit": "% NGF"},
      {"measurement": "survived neurons as % compared to neurons grown in the presence of NGF", "setting": "[1]; exp2, counted after 3 days", "value": 87.84, "unit": "% NGF"},
      {"measurement": "Fold change of survived neurons compared to neurons injected with PBS", "setting": "[1]; Table 2, AVG", "value": "2.32 Fold to PBS"},
      {"measurement": "Fold change of survived neurons compared to neurons injected with PBS", "setting": "[1]; Table 2, exp1", "value": "2.42 Fold to PBS"},
      {"measurement": "Fold change of survived neurons compared to neurons injected with PBS", "setting": "[1]; Table 2, exp2", "value": "2.21 Fold to PBS"},
      {"measurement": "survived neurons as % compared to neurons grown in the presence of GDNF", "setting": "[2]; AVG, 1 ng/ml", "value": 66.40, "unit": "% GDNF"},
      {"measurement": "survived neurons as % compared to neurons grown in the presence of GDNF", "setting": "[2]; AVG, 10 ng/ml", "value": 73.60, "unit": "% GDNF"},
      {"measurement": "survived neurons as % compared to neurons grown in the presence of GDNF", "setting": "[2]; AVG, 100 ng/ml", "value": 74.14, "unit": "% GDNF"},
      {"measurement": "survived neurons as % compared to neurons grown in the presence of GDNF", "setting": "[2]; AVG, 1000 ng/ml", "value": 81.99, "unit": "% GDNF"},
      {"measurement": "survived neurons as % compared to neurons grown in the presence of GDNF", "setting": "[2]; exp1, 1 ng/ml", "value": 73.87, "unit": "% GDNF"},
      {"measurement": "survived neurons as % compared to neurons grown in the presence of GDNF", "setting": "[2]; exp1, 10 ng/ml", "value": 74.30, "unit": "% GDNF"},
      {"measurement": "survived neurons as % compared to neurons grown in the presence of GDNF", "setting": "[2]; exp1, 100 ng/ml", "value": 85.15, "unit": "% GDNF"},
      {"measurement": "survived neurons as % compared to neurons grown in the presence of GDNF", "setting": "[2]; exp1, 1000 ng/ml", "value": 84.53, "unit": "% GDNF"},
      {"measurement": "survived neurons as % compared to neurons grown in the presence of GDNF", "setting": "[2]; exp2, 1 ng/ml", "value": 62.76, "unit": "% GDNF"},
      {"measurement": "survived neurons as % compared to neurons grown in the presence of GDNF", "setting": "[2]; exp2, 10 ng/ml", "value": 64.35, "unit": "% GDNF"},
      {"measurement": "survived neurons as % compared to neurons grown in the presence of GDNF", "setting": "[2]; exp2, 100 ng/ml", "value": 58.79, "unit": "% GDNF"},
      {"measurement": "survived neurons as % compared to neurons grown in the presence of GDNF", "setting": "[2]; exp2, 1000 ng/ml", "value": 80.59, "unit": "% GDNF"},
      {"measurement": "survived neurons as % compared to neurons grown in the presence of GDNF", "setting": "[2]; exp3, 1 ng/ml", "value": 62.58, "unit": "% GDNF"},
      {"measurement": "survived neurons as % compared to neurons grown in the presence of GDNF", "setting": "[2]; exp3, 10 ng/ml", "value": 82.16, "unit": "% GDNF"},
      {"measurement": "survived neurons as % compared to neurons grown in the presence of GDNF", "setting": "[2]; exp3, 100 ng/ml", "value": 78.46, "unit": "% GDNF"},
      {"measurement": "survived neurons as % compared to neurons grown in the presence of GDNF", "setting": "[2]; exp3, 1000 ng/ml", "value": 80.86, "unit": "% GDNF"},
      {"measurement": "Fold change of survived neurons compared to neurons grown without growth factors", "setting": "[2]; Table 4, AVG, 1 ng/ml", "value": 1.08, "unit": "fold"},
      {"measurement": "Fold change of survived neurons compared to neurons grown without growth factors", "setting": "[2]; Table 4, AVG, 10 ng/ml", "value": 1.20, "unit": "fold"},
      {"measurement": "Fold change of survived neurons compared to neurons grown without growth factors", "setting": "[2]; Table 4, AVG, 100 ng/ml", "value": 1.21, "unit": "fold"},
      {"measurement": "Fold change of survived neurons compared to neurons grown without growth factors", "setting": "[2]; Table 4, AVG, 1000 ng/ml", "value": 1.34, "unit": "fold"},
      {"measurement": "Fold change of survived neurons compared to neurons grown without growth factors", "setting": "[2]; Table 4, exp1, 1 ng/ml", "value": 1.29, "unit": "fold"},
      {"measurement": "Fold change of survived neurons compared to neurons grown without growth factors", "setting": "[2]; Table 4, exp1, 10 ng/ml", "value": 1.30, "unit": "fold"},
      {"measurement": "Fold change of survived neurons compared to neurons grown without growth factors", "setting": "[2]; Table 4, exp1, 100 ng/ml", "value": 1.49, "unit": "fold"},
      {"measurement": "Fold change of survived neurons compared to neurons grown without growth factors", "setting": "[2]; Table 4, exp1, 1000 ng/ml", "value": 1.48, "unit": "fold"},
      {"measurement": "Fold change of survived neurons compared to neurons grown without growth factors", "setting": "[2]; Table 4, exp2, 1 ng/ml", "value": 1.00, "unit": "fold"},
      {"measurement": "Fold change of survived neurons compared to neurons grown without growth factors", "setting": "[2]; Table 4, exp2, 10 ng/ml", "value": 1.02, "unit": "fold"},
      {"measurement": "Fold change of survived neurons compared to neurons grown without growth factors", "setting": "[2]; Table 4, exp2, 100 ng/ml", "value": 0.93, "unit": "fold"},
      {"measurement": "Fold change of survived neurons compared to neurons grown without growth factors", "setting": "[2]; Table 4, exp2, 1000 ng/ml", "value": 1.28, "unit": "fold"},
      {"measurement": "Fold change of survived neurons compared to neurons grown without growth factors", "setting": "[2]; Table 4, exp3, 1 ng/ml", "value": 0.97, "unit": "fold"},
      {"measurement": "Fold change of survived neurons compared to neurons grown without growth factors", "setting": "[2]; Table 4, exp3, 10 ng/ml", "value": 1.27, "unit": "fold"},
      {"measurement": "Fold change of survived neurons compared to neurons grown without growth factors", "setting": "[2]; Table 4, exp3, 100 ng/ml", "value": 1.21, "unit": "fold"},
      {"measurement": "Fold change of survived neurons compared to neurons grown without growth factors", "setting": "[2]; Table 4, exp3, 1000 ng/ml", "value": 1.25, "unit": "fold"}
    ]}
  ]
}
